According to the supplement of paper PMC11208160:

test: recombinant UMI read abundance after kanamycin selection (control-corrected) (log10(CPM+1)); higher = more efficient recombination; extreme values may be limits of the assay; sequences stand for … in AGTGCAGAGAAAATCGGCCAGTTTTCTCTGCCTGCAGTCCGCATGCCGTGGGACCCCTTGGGTTCTAACCTGTTGCCTAGATTTATGCAGCGGACTGCCTTTCTCCCAAAGTGATAAACCGG…AGGTTGGTTTCACT; site = the 11-nt donor
How it was run: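 Two replicates each of selected and unselected plating were used in this pooled Escherichia coli screen of donor and donor-binding-loop pairs for the IS621 bridge recombinase. Selection was with IPTG (0.07 mM) and kanamycin. Counts of recombinant UMIs, amplified across the donor–target junction, were converted to CPM, averaged, scaled by control-derived factors and reported as log10(CPM+1).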
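Also: IS621 bridge recombinase in Escherichia coli cells against a fixed T5 target plasmid.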

| Sequence | recombinant UMI read abundance (log10) |
| --- | --- |
| CCATTCCCATGGACCGGTTTTCCCGGTAATCCGTATTTGCT (site CCATTCCCTAG) | 0 |
| TGTCTAACATGGACCGGTTTTCCCGGTAATCCGTATTTGGC (site TGTCTAACTGC) | 0.011 |
| CCGGCCGCATGGACCGGTTTTCCCGGTAATCCGTATTTGCC (site CCGGCCGCTGG) | 0 |
| AGCCCTGCATGGACCGGTTTTCCCGGTAATCCGTATTTGGG (site AGCCCTGCTCC) | 0.336 |
| CACGGCCCATGGACCGGTTTTCCCGGTAATCCGTATTTGTT (site AACGGCCCTAA) | 0.0126 |
| GTTCGAGCATGGACCGGTTTTCCCGGTAATCCGTATTTGCG (site GTTCGAGCTAG) | 0 |
| ACGTTCCCATGGACCGGTTTTCCCGGTAATCCGTATTTGTG (site AGGTTCCCTCA) | 0.0827 |
| TTCACCTCATGGACCGGTTTTCCCGGTAATCCGTATTTGGT (site TTCACCTCTAC) | 0 |
| TATTTAGCATGGACCGGTTTTCCCGGTAATCCGTATTTGTG (site TATTTTGCTCA) | 0.0238 |
| CCCATACCATGGACCGGTTTTCCCGGTAATCCGTATTTGTC (site CCCATATCTGA) | 0 |
| ATATGGCCATGGACCGGTTTTCCCGGTAATCCGTATTTGAC (site ATATGGCCTGT) | 0 |
| CCTAAGGCATGGACCGGTTTTCCCGGTAATCCGTATTTGAT (site CCTAACGCTAT) | 0.00671 |
| GGTGAGCCATGGACCGGTTTTCCCGGTAATCCGTATTTGGG (site GGTGAGCCTCC) | 0.0257 |
| GGAAAGACATGGACCGGTTTTCCCGGTAATCCGTATTTGCC (site GGACAGACTGG) | 0 |
| GTAATTGCATGGACCGGTTTTCCCGGTAATCCGTATTTGTA (site GTAATTGCTTA) | 2.57 |
| CGGGAACCATGGACCGGTTTTCCCGGTAATCCGTATTTGAT (site CGGGATCCTAT) | 0 |
| CCAGGTGCATGGACCGGTTTTCCCGGTAATCCGTATTTGGT (site CCAGGTGCTAA) | 0.0181 |
| ACAGCATCATGGACCGGTTTTCCCGGTAATCCGTATTTGCA (site ACAGCATCTTG) | 2.11 |
| GTCTATACATGGACCGGTTTTCCCGGTAATCCGTATTTGAC (site TTCTATACTGT) | 1.01 |
| GAAGAGACATGGACCGGTTTTCCCGGTAATCCGTATTTGCT (site GAAGAGACTAG) | 2.79 |
| GCCCGAACATGGACCGGTTTTCCCGGTAATCCGTATTTGTC (site GCCCGAACTGA) | 1.98 |
| CACTTTCCATGGACCGGTTTTCCCGGTAATCCGTATTTGAG (site CACTTTCCTCT) | 0.0778 |
| GTGGAGGCATGGACCGGTTTTCCCGGTAATCCGTATTTGCG (site GTGGAGGCTCT) | 0.716 |
| CGGCGCCCATGGACCGGTTTTCCCGGTAATCCGTATTTGTC (site CGGCGCCCTGA) | 1.85 |
| CTAGTATCATGGACCGGTTTTCCCGGTAATCCGTATTTGAC (site CTAATATCTCT) | 0.764 |

| Sequence | recombinant UMI read abundance (log10) |
| --- | --- |
| CGAGGACCATGGACCGGTTTTCCCGGTAATCCGTATTTGAG (site CGAGGACCTCA) | 0.015 |
| AACGGTCCATGGACCGGTTTTCCCGGTAATCCGTATTTGAT (site AACTGTCCTAT) | 0.145 |
| TGGGCACCATGGACCGGTTTTCCCGGTAATCCGTATTTGCA (site AGGGCACCTTG) | 0.00499 |
| CCAGGTGCATGGACCGGTTTTCCCGGTAATCCGTATTTGAA (site CCAGGTGCTTT) | 1.73 |
| AGGACGACATGGACCGGTTTTCCCGGTAATCCGTATTTGGA (site AGGAAGACTTG) | 0 |
| GACTAGCCATGGACCGGTTTTCCCGGTAATCCGTATTTGAA (site GACTAGCCTTT) | 0.0158 |
| GGTTGGACATGGACCGGTTTTCCCGGTAATCCGTATTTGAC (site GGTTGGACTGT) | 1.49 |
| CAAGCAGCATGGACCGGTTTTCCCGGTAATCCGTATTTGCT (site CAATCAGCTAG) | 0 |
| TCATCTTCATGGACCGGTTTTCCCGGTAATCCGTATTTGGT (site TCATCTTCTAC) | 0.467 |
| GGATCATCATGGACCGGTTTTCCCGGTAATCCGTATTTGAT (site CGATCATCTAG) | 0 |
| CAAGCAGCATGGACCGGTTTTCCCGGTAATCCGTATTTGCT (site CAAGGAGCTAG) | 0 |
| GATTGGACATGGACCGGTTTTCCCGGTAATCCGTATTTGTC (site GATTGGACTGC) | 0 |
| CAATTCCCATGGACCGGTTTTCCCGGTAATCCGTATTTGCT (site CAATTGCCTAG) | 0 |
| TTATACTCATGGACCGGTTTTCCCGGTAATCCGTATTTGCA (site TCATACTCTTG) | 1.9 |
| TACTTGTCATGGACCGGTTTTCCCGGTAATCCGTATTTGCT (site TACTTGGCTAG) | 0.00306 |
| GTACGAGCATGGACCGGTTTTCCCGGTAATCCGTATTTGTG (site GTACGAGCTCA) | 1.39 |
| TTAGCTGCATGGACCGGTTTTCCCGGTAATCCGTATTTGTG (site TCAGCTGCTCA) | 0.0262 |
| ACGAAGCCATGGACCGGTTTTCCCGGTAATCCGTATTTGGG (site GCGAAGCCTCC) | 0.0145 |
| CGATCAGCATGGACCGGTTTTCCCGGTAATCCGTATTTGCA (site CGATCAGCTTG) | 1.9 |
| TACGAATCATGGACCGGTTTTCCCGGTAATCCGTATTTGCG (site TAGGAATCTCG) | 0.321 |
| TCGATGGCATGGACCGGTTTTCCCGGTAATCCGTATTTGCC (site TCGATGGCTGG) | 0 |
| TACTTGACATGGACCGGTTTTCCCGGTAATCCGTATTTGCT (site TACTGGACTAG) | 0.46 |
| GTTCTACCATGGACCGGTTTTCCCGGTAATCCGTATTTGCC (site GTTCTACCTGG) | 0 |
| GGTAGGTCATGGACCGGTTTTCCCGGTAATCCGTATTTGTT (site GGTAAGTCTAA) | 0.00393 |
| TAGGAACCATGGACCGGTTTTCCCGGTAATCCGTATTTGCG (site TAGGAATCTCG) | 0.681 |

| Sequence | recombinant UMI read abundance (log10) |
| --- | --- |
| GAGCTCACATGGACCGGTTTTCCCGGTAATCCGTATTTGAT (site GAGCTTACTAT) | 0.342 |
| AGATTCCCATGGACCGGTTTTCCCGGTAATCCGTATTTGTG (site AGATTCCCTCA) | 0.348 |
| CCCAACCCATGGACCGGTTTTCCCGGTAATCCGTATTTGAT (site CCCAACCCTAT) | 0.00723 |
| GGCCGTACATGGACCGGTTTTCCCGGTAATCCGTATTTGCT (site AGCCGTACTAG) | 0.00424 |
| CAACTCACATGGACCGGTTTTCCCGGTAATCCGTATTTGGG (site CAAGTCACTCC) | 0.00719 |
| CCAGGTGCATGGACCGGTTTTCCCGGTAATCCGTATTTGAC (site CCAGGTGCTGT) | 0.637 |
| GGCCTTTCATGGACCGGTTTTCCCGGTAATCCGTATTTGAC (site GGCCTTTCTGT) | 0 |
| AACAGACCATGGACCGGTTTTCCCGGTAATCCGTATTTGCG (site AACAGACCTCG) | 0 |
| TACTTGACATGGACCGGTTTTCCCGGTAATCCGTATTTGCT (site TAGTTGACTAG) | 0.00537 |
| ATGAGCGCATGGACCGGTTTTCCCGGTAATCCGTATTTGGG (site ATGAGCGCTCC) | 0.00562 |
| CTAGTATCATGGACCGGTTTTCCCGGTAATCCGTATTTGAC (site CTAGTATCTGC) | 2.62 |
| TGAGTTTCATGGACCGGTTTTCCCGGTAATCCGTATTTGCT (site TGAGTTTCTAG) | 1.54 |
| GTTGTTCCATGGACCGGTTTTCCCGGTAATCCGTATTTGGT (site GATGTTCCTAC) | 0.0185 |
| TTTGCGGCATGGACCGGTTTTCCCGGTAATCCGTATTTGCT (site TTTACGGCTAG) | 0.658 |
| CAAGCAGCATGGACCGGTTTTCCCGGTAATCCGTATTTGCT (site CAAGCAGCTGG) | 1.4 |
| CGCCGTACATGGACCGGTTTTCCCGGTAATCCGTATTTGCC (site CGCCGTACTTG) | 0.384 |
| TGTGTATCATGGACCGGTTTTCCCGGTAATCCGTATTTGAT (site TGTGTATCTAT) | 0.398 |
| GATTGGACATGGACCGGTTTTCCCGGTAATCCGTATTTGAT (site GATTGGACTGT) | 0 |
| GAGCTCACATGGACCGGTTTTCCCGGTAATCCGTATTTGAT (site GAGCTCACTAA) | 0.00273 |
| TAGAAGACATGGACCGGTTTTCCCGGTAATCCGTATTTGCA (site TAGAAAACTTG) | 0 |
| AATGTAACATGGACCGGTTTTCCCGGTAATCCGTATTTGCA (site AATGTAACTCG) | 0.0207 |
| TTAGCTGCATGGACCGGTTTTCCCGGTAATCCGTATTTGTG (site TAAGCTGCTCA) | 0.00653 |
| CAGTAAGCATGGACCGGTTTTCCCGGTAATCCGTATTTGTG (site CAGTAAGCTCA) | 2.41 |
| CTAGTATCATGGACCGGTTTTCCCGGTAATCCGTATTTGAC (site CTAGGACCTGT) | 0 |
| CCAGAGACATGGACCGGTTTTCCCGGTAATCCGTATTTGCG (site GCAGAGACTCG) | 0.0188 |
